Source: ChEMBL document CHEMBL1201862, “PubChem BioAssay data set” (2004)
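Cultured in 96-well plates, cells were exposed to test compound for 48 hours across five concentrations. Abbreviation: GI50, concentration required for 50% inhibition of growth.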 Activity calls are given as the source filed them. Cut-off read from the data, not from the text of the source: active = GI50 up to about 1.1 µM and inactive = higher. Where a SMILES comes first, the peptide text is derived from it. [ ]: non-standard residue; d: D form. Hiv = CC(C)[C@H](O)C(=O)O

Columns and labels:
Assay in all cases: DTP human tumour cell line panel, 48 h
[1] = test system: OVCAR-8
[2] = test system: SK-MEL-5
[3] = test system: RPMI-8226
[4] = test system: NCI-H226
[5] = test system: KM12
[6] = test system: A498
[7] = test system: MCF7
[8] = test system: EKVX
[9] = test system: HCT-116
[10] = test system: CCRF-CEM
[11] = test system: HL-60
[12] = test system: Hs-578T
[13] = test system: MDA-N
[14] = test system: NCI-H23
[15] = test system: OVCAR-3
[16] = test system: UACC-62
[17] = test system: SW-620
[18] = test system: CAKI-1
[19] = test system: SNB-75
[20] = test system: SNB-19

Measured: GI50

O=Cc1ccc2c(c1)CC1(Cc3ccccc3C1)C2
inactive: [1] 19.3 µM | [2] 16 µM | [3] 24.8 µM | [4] 22.5 µM | [5] 55.8 µM | [6] 30.3 µM | [7] 31 µM | [8] 15.3 µM | [9] > 100 µM | [10] 7.78 µM | [11] 19.4 µM | [12] 3.72 µM | [13] 18.7 µM | [14] 23.3 µM | [15] 14.3 µM | [16] 2.38 µM

CN(C)c1ncc(-c2c[nH]c3ccccc23)nc1-c1c[nH]c2ccccc12
inactive: [17] 3.38 µM | [1] 6.93 µM | [2] 3.72 µM | [3] 2.74 µM | [5] 2.19 µM | [6] 2.14 µM | [18] 3.47 µM | [7] 2.3 µM | [8] 3.32 µM | [19] 1.15 µM | [9] 3.13 µM | [11] 2.02 µM | [12] 2.78 µM | [13] 2.08 µM | [20] 4.12 µM | [15] 5.75 µM | [16] 1.99 µM

CCOC(=O)C(NC(=O)CC(C)C)(NC(C)C)C(F)(F)F (stereo not given)
inactive: [17] > 100 µM | [1] > 100 µM | [2] > 100 µM | [3] > 100 µM | [4] > 100 µM | [5] > 100 µM | [6] > 100 µM | [18] > 100 µM | [7] > 100 µM | [8] > 100 µM | [9] > 100 µM | [10] > 100 µM | [11] > 100 µM | [12] > 100 µM | [13] > 100 µM | [20] > 100 µM | [14] > 100 µM | [15] > 100 µM

CC(=O)Oc1ccc(/C=C/C(=O)O[C@@H](C(=O)O)[C@@H](OC(=O)/C=C/c2ccc(OC(C)=O)c(OC(C)=O)c2)C(=O)O)cc1OC(C)=O
inactive: [17] > 100 µM | [1] > 100 µM | [2] > 100 µM | [3] > 100 µM | [5] > 100 µM | [6] > 100 µM | [18] > 100 µM | [7] > 100 µM | [8] > 100 µM | [19] 82.8 µM | [9] > 100 µM | [10] > 100 µM | [12] > 100 µM | [13] > 100 µM | [20] > 100 µM | [14] > 100 µM | [15] > 100 µM | [16] > 100 µM

Cc1cc(C)c2nccc(NCCCN(C)C)c2c1[N+](=O)[O-]
inactive: [17] 26.9 µM | [1] 37.6 µM | [2] 13.5 µM | [3] 34.6 µM | [5] 31.4 µM | [6] 59 µM | [18] 32.2 µM | [7] 30.5 µM | [8] 64 µM | [19] 24.9 µM | [9] 30.9 µM | [10] 37.2 µM | [11] 25.9 µM | [12] 34 µM | [13] 38.8 µM | [20] > 100 µM | [14] 19.2 µM | [15] 35.5 µM | [16] 34.1 µM

Cc1ccc(NC(=O)c2cc(S(=O)(=O)Nc3n[nH]c(=O)n3-c3ccccc3)c(S)cc2Cl)cc1
inactive: [17] > 100 µM | [1] > 100 µM | [2] > 100 µM | [3] > 100 µM | [4] > 100 µM | [5] > 100 µM | [6] > 100 µM | [18] > 100 µM | [7] > 100 µM | [8] > 100 µM | [19] > 100 µM | [9] > 100 µM | [11] > 100 µM | [12] > 100 µM | [13] > 100 µM | [20] > 100 µM | [14] > 100 µM | [15] > 100 µM | [16] > 100 µM

COc1cccc2c(=O)oc(-c3ccc(C(C)(C)C)cc3)nc12
inactive: [17] 55.2 µM | [1] 39.7 µM | [2] 28.8 µM | [3] 34.3 µM | [5] 32.4 µM | [6] > 100 µM | [18] 35.8 µM | [7] 57 µM | [8] 63.7 µM | [19] 23.9 µM | [9] 49.9 µM | [10] 33.7 µM | [11] 18.5 µM | [12] 79.3 µM | [13] 76.7 µM | [20] > 100 µM | [14] > 100 µM | [15] 29.9 µM | [16] > 100 µM

CC(C)(C)OC(=O)NCCCCC(N)C(N)=O (stereo not given)
inactive: [17] > 100 µM | [1] > 100 µM | [2] 78.7 µM | [3] > 100 µM | [4] > 100 µM | [5] > 100 µM | [6] > 100 µM | [18] > 100 µM | [7] > 100 µM | [8] > 100 µM | [19] > 100 µM | [9] > 100 µM | [10] > 100 µM | [12] 45.7 µM | [13] > 100 µM | [20] > 100 µM | [14] > 100 µM | [15] > 100 µM | [16] 7.46 µM

O=C1CN(c2ccccc2)C(=O)CN1NCNN1CC(=O)N(c2ccccc2)CC1=O
inactive: [17] > 100 µM | [1] > 100 µM | [2] > 100 µM | [3] > 100 µM | [5] > 100 µM | [6] > 100 µM | [18] > 100 µM | [7] > 100 µM | [8] > 100 µM | [19] > 100 µM | [9] > 100 µM | [10] > 100 µM | [11] > 100 µM | [12] > 100 µM | [13] > 100 µM | [20] > 100 µM | [14] 58.5 µM | [15] > 100 µM | [16] > 100 µM

CC(C)[C@@H]1OC(=O)[C@@H](C)NC(=O)[C@@H]2CCCN2C1=O (cyclo([Hiv]-Pro-[dA]))
inactive: [17] > 100 µM | [1] > 100 µM | [2] > 100 µM | [4] > 100 µM | [5] > 100 µM | [6] > 100 µM | [18] > 100 µM | [7] > 100 µM | [8] > 100 µM | [9] > 100 µM | [10] > 100 µM | [11] > 100 µM | [12] > 100 µM | [13] > 100 µM | [20] > 100 µM | [14] > 100 µM | [15] > 100 µM | [16] > 100 µM

O=c1c(Cc2ccc(Cl)cc2)nnc2sc(-c3ccc(-c4ccc(F)c(Cl)c4)o3)nn12
inactive: [17] 54.5 µM | [1] 58.7 µM | [2] > 100 µM | [3] > 100 µM | [4] > 100 µM | [5] 91.2 µM | [6] 42.2 µM | [18] 43 µM | [7] 32.7 µM | [8] 24.5 µM | [9] 29.7 µM | [10] 45.7 µM | [11] 43.7 µM | [12] > 100 µM | [13] 95.3 µM | [20] > 100 µM | [14] 44.5 µM | [16] 53.2 µM
